Measurements from publication PMC3419816 (Journal of molecular neuroscience : MN, 2012).
Where two headings read alike, the source gives them in different places. Positions of bridges follow the written chain, without caps; N, C: chain ends. No end group written: not given here.

Assays:
[1] = tested on: cytosolic Ca^2+ (NCI-H838 cells); experiment: Cytosolic Ca^2+ in Fura-2 AM loaded NCI-H838 cells; format: cell-based; details: for effect on PACAP-induced increase in cytosolic Ca^2+ (discussion): NCI-H838 cells; for effect on PACAP-27-stimulated fluorescence intensity / effect on basal fluorescence intensity: 50 μM inhibitor; for effect on PACAP-27-stimulated fluorescence intensity: 100 nM PACAP-27, Fig. 1; for effect on basal fluorescence intensity: Fig. 1
PYK-2 [2] = details: NCI-H69, ref Roelle et al., 2008, cited from earlier work; for PYK-2 tyrosine phosphorylation: 10 μM
[3] = tested on: epidermal growth factor receptor (EGFR); details: ref Moody et al., 2012, cited from earlier work; for effect on PACAP-induced EGFR tyrosine phosphorylation: NCI-H838
FAK [4] = details: pancreatic acini, cited from earlier work
ERK [5] = details: NCI-H838; ref Moody et al., 2002; cited from earlier work
PYK-2 [6] = details: read-out: PYK-2 IC50, cited from earlier work
FAK [7] = details: read-out: FAK IC50, cited from earlier work
[8] = tested on: prostate, breast, pancreatic and colon tumors; details: nude mice; ref Roberts et al., 2008; cited from earlier work
ERK [9] = details: NCI-H69; ref Roelle et al., 2008; cited from earlier work
ovarian tumor = details: animal models; ref Halder et al., 2007; cited from earlier work
glioma tumor = details: animal models; ref Halder et al., 2007; cited from earlier work
[10] = tested on: cytosolic Ca^2+ (pancreatic acini); details: ref Pace et al., 2003; cited from earlier work
NCI-H838 cells = details: ref Moody et al., cited from earlier work; for growth of NCI-H838 cells: 2003b
PYK-2 [11] = details: 10 μM, NCI-H510; ref Roelle et al., 2008; cited from earlier work
[12] = tested on: cytosolic Ca^2+ (NCI-H69 cells); details: 10 μM, ref Roelle et al., 2008; cited from earlier work
[13] = tested on: cytosolic Ca^2+ (NCI-H510 cells); details: 10 μM, ref Roelle et al., 2008; cited from earlier work
PYK-2 [14] = experiment: Total PYK-2 Western blot, NCI-H838 cells; format: cell-based; details: 100 nM, 2 min, Fig. 3A
cAMP = details: lung cancer cells, cited from earlier work
[15] = tested on: phosphatidylinositol turnover; details: lung cancer cells, cited from earlier work
PAC1 = details: cited from earlier work
PYK-2 [16] = details: by an increase in cytoplasmic Ca^2+; ref Lev et al., 1995; cited from earlier work
VPAC1 = details: ref Ishihara et al., 1992; Lutz et al., 1993; cited from earlier work
VPAC2 = details: ref Ishihara et al., 1992; Lutz et al., 1993; cited from earlier work
[17] = ATP binding, ref Roberts et al., 2008
[18] = ATP binding site, ref Liu et al., 2007

O=C(O)CN(CC(=O)O)c1ccccc1OCCOc1ccccc1N(CC(=O)O)CC(=O)O [BAPTA]
effect on PACAP-induced increase in cytosolic Ca^2+ (discussion) [1]: inhibited | effect on GAL- or BK-induced PYK-2 phosphorylation (PYK-2 [2]): blocked | effect on PACAP-induced EGFR tyrosine phosphorylation [3]: not BAPTA inhibited

CN(C)CCCn1cc(C2=C(c3c[nH]c4ccccc34)C(=O)NC2=O)c2ccccc21 [GF109203X]
effect on CCK-induced FAK tyrosine phosphorylation (FAK [4]; ref Tapia et al., 1999): unaffected

O=S(=O)(NCCNC/C=C/c1ccc(Br)cc1)c1cccc2cnccc12 [H89]
effect on PACAP-27-stimulated fluorescence intensity [1]: no effect | effect on basal fluorescence intensity [1]: no effect

COc1cccc(-c2cc(=O)c3ccccc3o2)c1N [PD98059]
effect on PACAP-induced ERK tyrosine phosphorylation (ERK [5]): inhibited

CN(c1ncccc1CNc1nc(Nc2ccc3c(c2)CC(=O)N3)ncc1C(F)(F)F)S(C)(=O)=O [PF-562,271]
IC50 (PYK-2 [6]; [17]): 13 nM | IC50 (FAK [7]; [17]): 2 nM | growth of prostate, breast, pancreatic and colon tumors [8]: inhibited

CC(C)(C)n1nc(-c2ccc(Cl)cc2)c2c(N)ncnc21 [PP2]
effect on GAL- or BK-induced PYK-2 phosphorylation (PYK-2 [2]): blocked | effect on GAL- or BK-induced ERK tyrosine phosphorylation (ERK [9]): blocked | effect on PACAP-induced EGFR tyrosine phosphorylation [3]: inhibited

CNC(=O)c1ccccc1Nc1nc(Nc2ccc(N3CCOCC3)cc2OC)ncc1Cl [TAE226]
IC50 (PYK-2 [6]; [18]): 5 nM | IC50 (FAK [7]; [18]): 5 nM | ovarian tumor growth (ovarian tumor): inhibited | glioma tumor growth (glioma tumor): inhibited

COc1ccc2c(c1)CC[C@@H]1[C@@H]2CC[C@]2(C)[C@@H](NCCCCCCN3C(=O)C=CC3=O)CC[C@@H]12 [U73122]
effect on ionomycin-induced increase in cytosolic Ca^2+ ([1]; 5 μM ionomycin, data not shown): little effect | effect on PACAP-27-stimulated fluorescence intensity [1]: abolished | effect on basal fluorescence intensity [1]: little effect

C/C=C(/C)C(=O)O[C@H]1C(C)=C2[C@H]([C@@H]1OC(=O)CCCCCCC)[C@@](C)(OC(C)=O)C[C@H](OC(=O)CCC)[C@@]1(O)[C@H]2OC(=O)[C@@]1(C)O [thapsigargin]
effect on CCK-induced increase in cytosolic Ca^2+ [10]: inhibits

PACAP(6–38): PAC1 antagonist (FTDSYSRYRKQMAVKKYLAAVLGKRYKQRVKNK; ends and bridges not checked; UniProt P18509 137-169, looked up, fragment)
effect on PACAP-induced increase in cytosolic Ca^2+ (discussion) [1]: blocked | effect on PACAP-induced EGFR tyrosine phosphorylation [3]: inhibited | growth of NCI-H838 cells (NCI-H838 cells): inhibited | inhibition of proliferation of NCI-H838 cells (NCI-H838 cells; 2012): inhibited

bradykinin (RPPGFSPFR; Bradykinin; UniProt P01042 381-389, looked up)
PYK-2 tyrosine phosphorylation (PYK-2 [2]): increased | PYK-2 tyrosine phosphorylation (PYK-2 [11]): increased | cytosolic Ca^2+ [12]: increased | cytosolic Ca^2+ [13]: increased

galanin (GWTLNSAGYLLGPHAVGNHRSFSDKNGLTS; Galanin; UniProt P22466 33-62, looked up)
PYK-2 tyrosine phosphorylation (PYK-2 [2]): increased | PYK-2 tyrosine phosphorylation (PYK-2 [11]): increased | cytosolic Ca^2+ [12]: increased | cytosolic Ca^2+ [13]: increased

pituitary adenylate cyclase activating polypeptide [PACAP]
total PYK-2 (PYK-2 [14]): did not change | ERK tyrosine phosphorylation (ERK [5]): caused ERK tyrosine phosphorylation | Y^1068-EGFR phosphorylation ([3]; NCI-H838, after 1 min): increased | cAMP (cAMP; ref not given): increases | PI metabolites ([15]; ref not given): increases | binding affinity to PAC1 (PAC1; ref not given for PACAP): high affinity | growth of NCI-H838 cells (NCI-H838 cells): stimulated

platelet-derived growth factor
PYK-2 activation (PYK-2 [16]): activated

vasoactive intestinal peptide [VIP]
cAMP (cAMP; ref Lee et al., 1990): increases | PI turnover ([15]; ref Lee et al., 1990): does not cause PI turnover | binding affinity to PAC1 (PAC1; ref Ishihara et al., 1992, Lutz et al., 1993): low affinity | binding affinity to VPAC1 (VPAC1): high affinity | binding affinity to VPAC2 (VPAC2): high affinity | growth of NCI-H838 cells (NCI-H838 cells): stimulated

vasopressin (CYFQNCPRG-NH2; disulfide 1-6; ends not checked; UniProt P01185 20-28, looked up)
PYK-2 activation (PYK-2 [16]): activated

B1: Cholecystokinin (peptide, UniProt P06307 21-115, looked up)
Cholecystokinin: QPVPPADPAGSGLQRAEEAPRRQLRVSQRTDGESRAHLGALLARYIQQARKAPSGRMSIVKNLQNLDPSHRISDRDYMGWMDFGRRSAEEYEYPS
modifications: Cholecystokinin
tyrosine phosphorylation of FAK (FAK [4]; ref Pace et al., 2003): causes tyrosine phosphorylation | cytosolic Ca^2+ [10]: elevates
